Reference: patent publication US20210361706A1 (priority 2018, published 2021)
Like-named read-outs stand apart in the source and are kept apart here.

Key:
[1] = test system: EO771 tumor; assay type: in vivo, C57BL/6JNarl female mice; conditions: for survival rate: twice CTX, FIG. 1B
Method: The syngeneic orthotopic EO771 breast cancer mouse model (see Johnstone et al., Disease models & mechanisms, 8(3):237-251 (2015)) was used to evaluate the in vivo treatment efficacy.
C57BL/6JNarl female mice were purchased from National Laboratory Animal Center, Taiwan and housed under specific pathogenic-free condition in the animal facility of Institute of Molecular Biology, Academia Sinica, Taiwan. Mice were used between 8-to-12-week-old.
EO771 cell line (CH3 BioSystems) were cultured in complete medium (RPMI 1640 (Gibco) supplemented with 20 mM pH7.2 HEPES (Sigma-Aldrich), 10% fetal bovine serum (FBS; HyClone) and 1% Penicillin and Streptomycin (PS; Gibco)). B16-F10 melanoma was provided by Dr. Roffler, Steve R. (Institute of Biomedical Sciences, Academia Sinica, Taiwan) and cultured in complete medium (DMEM (Gibco) supplemented with 10% FBS (HyClone) and 1% PS (Gibco)). Tumor cells were cultured at 37° C. incubator with 5% CO2.
Bone marrow (BM) cells were obtained from Tibias and femurs. Red blood cells were lysed by ACK lysis buffer (0.15 M NH4Cl, 10 mM NaHCO3, 1 mM disodium EDTA (pH 7.4)). The BM cells were cultured in 10% FBS RPMI medium containing rmIL-15 for 7 days, and IL-12 was added 16 hours before harvesting. The harvested BM cells were stained with antibodies specific for CD19, H57, NK1.1, CD11 c and B220, and sorted for CD11c^+B220^+ NK cells using FACSAriaII SORP (BD Biosciences; FACS Core, Institute of Molecular Biology, Academia Sinica, Taiwan).
CTX was administrated on day-21 post tumor inoculation. The twice CTX-treatment group received the second CTX injection 6 days after the first treatment. Phosphate-buffered saline (PBS) was used as a negative control.
First, the effects of CTX monotherapy, NK monotherapy, or CTX and NK cell combined therapy on EO771 tumor-bearing mice were examined, following the assays described in Example 1 above. The treatment started on day-21 post tumor inoculation. […] FIG. 2. […] FIG. 2.

[2] = test system: EO771 tumor; assay type: in vivo, C57BL/6JNarl female mice
Excerpt: Next, the effect of CTX monotherapy and CTX/NK cell combined therapy were examined in an EO771 tumor resection mouse model, which mimics patients whose tumor was surgically removed.
Tumor and draining lymph node were resected on day-21 post tumor inoculation, and CTX alone or in combination with NK cells were started two days after the resection. […] FIG. 4. […] FIG. 4. […] FIG. 4. […]

[3] = test system: EO771 cells; assay: EO771 re-challenge of tumor-bearing mice that survived the primary tumor after treatment
Method: The orthotopic syngeneic TMBC model was done by injection of EO771 cells into the 4th mammary fat pad of C57BL/6JNarl female mice. For the tumor-bearing model, each mouse was inoculated with 0.5×10^6 cells and received the first intra-peritoneal injection of CTX after 21 days. The second CTX injection was given 6 days later. Sorted CD11c^+B220^+ NK cells were transferred intravenously around 24 hours after the second CTX treatment, and followed with another NK cell transfer 3-4 days later. For the tumor-resect model, each mouse was inoculated with 0.3×10^6 EO771 cells, and the tumor and draining lymph node were resected 21 days later. CTX/NK treatment started at 48 hours after resection as described in the tumor-bearing model. […] The mice were monitored for survival, body weight, and tumor volume.
Kaplan-Meier survival analyses were performed using GraphPad Prism 7, and the Log-rank test was used to determine significance. Cox proportional hazard model was used to analyze hazard ratio and interaction [24]. P-value≤0.05 was considered statistically significant (*p≤0.05, **p≤0.01, ***p≤0.001, ****p≤0.0001).
To determine whether CTX/NK cell combined therapy would prevent or reduce the risk of tumor recurrence, mice who survived the primary tumor after the treatment were re-challenged with the same tumor cells to mimic cancer recurrence.
The cure rate was estimated by multiplying the primary and re-challenge survival rates.

[4] = test system: EO771 cells; assay type: in vivo, C57BL/6JNarl female mice; conditions: tumor-resected mice
Excerpt: Following the assays described in Example 1 above, it was examined in this Example whether CTX monotherapy and CTX/NK cell combined therapy would induce protective immune memory under tumor-resected condition. Mice survived after the treatment of primary EO771 tumor were re-challenged with EO771 cells. […] FIG. 5. […] FIG. 5.

[5] = tumor-bearing model, reference: no treatment
[6] = tumor-resection model, reference: no treatment (resection only)
[7] = primary survival rate × survival rate after EO771 re-challenge

Q: Which “mice survived for at least 120 days” value ([1]; CTX once, 150 mg/kg per injection, day-21 post tumor inoculation, FIG. 1A) does the source give for `O=P1(N(CCCl)CCCl)NCCCO1` (stereo not shown) [CTX, cyclophosphamide] here?
A: The value was 1 out of 8.

Q: And the “mice survived for at least 120 days” value ([1]; CTX twice, 6 days apart, 150 mg/kg per injection, from day 21, FIG. 1A)?
A: The value was 5 out of 8.

Q: What about the “mice survived for at least 120 days” value ([1]; treatment started on day-21 post tumor inoculation, FIG. 2) of the same compound?
A: Its value is 62%.

Q: And the “Primary survival rate % (live/total)” value ([1]; tumor-bearing mice, survival post treatment in mice inoculated with tumor the first time)?
A: Its value is 62 (46/74) %.

Q: What about the “HR (95% CI), Frailty adjustment” value [1, 5] of the same compound?
A: Its value is 0.02 (0.009, 0.044).

Q: What about the “HR (95% CI), cluster adjustment” value [1, 5] of the same compound?
A: Its value is 0.024 (0.009, 0.066).

Q: And the “HR (95% CI), without batch adjustment” value [1, 5]?
A: The value was 0.024 (0.012, 0.051).

Q: What about the survival rate ([1]; 6 days apart, 125 mg/kg per injection) of the same compound?
A: Its survival rate is 11%.

Q: What about the survival rate ([1]; 6 days apart, 150 mg/kg per injection) of the same compound?
A: The survival rate was 62%.

Q: And the survival rate ([2]; tumor resected mice, treatment started two days after resection, FIG. 4)?
A: Its survival rate is 86%.

Q: What about the “Primary survival rate % (live/total)” value ([2]; tumor-resected mice, survival post treatment in mice inoculated with tumor the first time) of the same compound?
A: Its value is 86 (49/57) %.

Q: And the “HR (95% CI), Frailty adjustment” value [2, 6]?
A: The value was 0.083 (0.036, 0.192).

Q: And the “HR (95% CI), cluster adjustment” value [2, 6]?
A: The value was 0.086 (0.037, 0.201).

Q: What about the “HR (95% CI), without batch adjustment” value [2, 6] of the same compound?
A: Its value is 0.086 (0.040, 0.186).

Q: What about the “Survival rate after EO771 re-challenge % (live/total)” value [3] of the same compound?
A: The value was 90 (26/29) %.

Q: And the “survived at least 120 days after the EO771 re-challenge” value ([3]; FIG. 3)?
A: Its value is 90%.

Q: And the “Estimated cure rate with immune protection (%)” value [3, 7]?
A: Its value is 56%.

Q: What about the estimated cure rate ([3]; primary × re-challenge survival rates) of the same compound?
A: Its estimated cure rate is 56%.

Q: And the “Tumor-free rate after EO771 re-challenge % (live/total)” value [4]?
A: Its value is 30 (7/23) %.

Q: What about the estimated cure rate ([4]; EO771 primary and re-challenge survival rates) of the same compound?
A: Its estimated cure rate is 26%.

Q: And the “survival after EO771 re-challenge” value ([4]; FIG. 5)?
A: Its value is 30%.

Q: What about the “Estimated cure rate with immune protection (%)” value [4, 7] of the same compound?
A: Its value is 26%.
